Experimental data: patent US5310745A, “Antiviral compounds” (priority 1992, dated 1994)

Assays:
Assay type in all cases: cell-based
[1] = test system: visna virus; test: Plaque reduction assay, inhibition of visna virus in vitro; design: key to Antiviral Activity: A: active compound; I: inactive compound; settings: for % Plaque Reduction / inhibition at 1 µM / inhibition at 10 µM / inhibition at 100 µM / inhibition at 1000 µM: Table 2; for inhibition at 1 µM / inhibition at 10 µM / inhibition at 100 µM / inhibition at 1000 µM: Visna-maedi virus; for inhibition at 1 µM: 0.001 mM; for Antiviral Activity: Table 1
From the text: Visna virus, a lentivirus genetically very similar to the AIDS virus, is pathogenic for sheep and goats. See Sonigo et al., Cell 42, 369-382 (1985); Haase, Nature 322, 130-136 (1986). Inhibition of visna virus replication in vitro as a useful model for human immunodeficiency virus (HIV) and its inhibition by test compounds has been described by Franket al., Antimicrobial Agents and Chemotherapy 31 (9), 1369-1374 (1987). The N-butyl derivative of 1,5-dideoxy-1,5-imino-D-glucitol, also referred to as n-butyl-deoxynojirimycin (N-Bu-DNJ), was used as a control standard for comparison with various novel compounds of this invention.
Various compounds as prepared above were tested for inhibition of visna virus in vitro in a plaque reduction assay as follows:
(§1) Sheep choroid plexus (SCP) cells were obtained from American Type Culture Collection (ATCC) catalogue number CRL 1700 and were routinely passaged in vitro in Dulbecco's Modified Eagles (DME) medium supplemented with 20% fetal bovine serum (FBS). SCP cells were passaged once per week at a 1:2 or 1:3 split ratio. Visna was titrated by plaque assay in six-well plates. Virus pools were stored at -70° C.
(§2) SCP cells were cultured in 6-well plates to confluence. Wells were washed two times with serum free Minimal Essential Medium (MEM) to remove FBS. 0.2 ml of virus was added per well in MEM supplemented with 4 mM glutamine and gentamycin. After 1 hour adsorption, the virus was aspirated from each well. The appropriate concentration of each compound in 5 ml of Medium 199 (M-199) supplemented With 2% lamb serum, 4 mM glutamine, 0.5% agarose and gentamycin was added to each well. Cultures were incubated at 37° C. in a humidified 5% CO2 incubator for 3-4 weeks. To terminate the test: cultures were fixed in 10% formalin, the agar removed, the monolayers stained with 1% crystal violet and plaques counted. Each compound concentration was run in triplicate. […] 0 is no toxicity observed while 4 is total lysing of the cell monolayer.

[2] = test system: Sheep choroid plexus (SCP) cells; test: Toxicity of compounds in control wells without virus, graded morphologically
Experimental: as §1, §2

[3] = test system: Sheep choroid plexus (SCP) cells; test: as above; design: key: 0: no toxicity observed; 4: total lysing of the cell monolayer; settings: graded 0 to 4, Table 2
Experimental: as §1, §2

[4] = 0.01 mM, graded 0 to 4, Table 2
[5] = 0.03125 mM, 0 to 4 scale, Table 1

SMILES	% Plaque Reduction ([1]; 1.0 mM)	Toxicity ([3]; 0.01 mM)	Toxicity ([3]; 0.1 mM)	inhibition at 1 µM [1]	inhibition at 10 µM ([1]; 0.01 mM)	inhibition at 100 µM ([1]; 0.1 mM)	Toxicity ([2]; 0.1 mM, graded 0 to 4, Table 2)	Toxicity ([3]; 0.001 mM)	Toxicity ([3]; 1.0 mM)	also measured
CCCC(C)CN1C[C@H](OC(C)=O)[C@@H](OC(C)=O)[C@H](OC(C)=O)[C@H]1COC(C)=O (stereo partly drawn) [Example 33, 1,5-[(2-Methylpentyl)imino]-1,5-dideoxy-D-glucitol, tetraacetate]	63%	0	0	–	–	–	–	–	–	% Plaque Reduction ([1]; 0.01 mM): 21%; % Plaque Reduction ([1]; 0.1 mM): 28%; Toxicity ([2]; 1.0 mM, graded 0 to 4, Table 2): 3
CCCCCCCCCCc1ccc(C(=O)N2C[C@H](OC(C)=O)[C@@H](OC(C)=O)[C@H](OC(C)=O)[C@H]2COC(C)=O)cc1 [Example 47, 1,5-[(4-Decylbenzoyl)imino]-1,5-dideoxy-D-glucitol, tetraacetate]	Toxic	0	–	9%	64%	86%	1	0	4	–
CC(=O)OC[C@@H]1[C@@H](OC(C)=O)[C@H](OC(C)=O)[C@@H](OC(C)=O)CN1C(=O)Cc1ccc(Cl)cc1 [Example 40, 1,5-[(4-Chlorophenyl)acetylimino]-1,5-dideoxy-D-glucitol, tetraacetate]	–	–	–	29%	46%	–	3	0	4	Toxicity [2, 4]: 1
CCC(CC)CN1C[C@H](OC(C)=O)[C@@H](OC(C)=O)[C@H](OC(C)=O)[C@H]1COC(C)=O [Example 27, 1,5-[(2-Ethylbutyl)imino]-1,5-dideoxy-D-glucitol, tetraacetate]	–	–	0	–	–	12%	–	–	–	inhibition at 1000 µM ([1]; 1.0 mM): 65%; Toxicity ([2]; 1.0 mM, graded 0 to 4, Table 2): 3
CCCCN1C[C@H](OC(=O)CCC)[C@@H](OC(=O)CCC)[C@H](O)[C@H]1CO [Example 38, 1,5-(Butylimino)-1,5-dideoxy-D-glucitol, 2,3-dibutyrate]	Toxic	0	–	47%	54%	80%	2	0	4	–
CC(=O)OC[C@@H]1[C@@H](OC(C)=O)[C@H](OC(C)=O)[C@@H](OC(C)=O)CN1C [Example 10, 1,5-(Methylimino)-1,5-dideoxy-D-glucitol, tetraacetate]	–	–	–	–	–	–	–	–	–	Antiviral Activity ([1]; 0.03125 mM): A; Antiviral Activity ([1]; 0.0625 mM): A; Antiviral Activity ([1]; 0.125 mM): A; Toxicity [2, 5]: 1; Toxicity ([2]; 0.0625 mM, 0 to 4 scale, Table 1): 2; Toxicity ([2]; 0.125 mM, 0 to 4 scale, Table 1): 3
CCCCN1C[C@H](OC(=O)CCC2CCCC2)[C@@H](OC(=O)CCC2CCCC2)[C@H](OC(=O)CCC2CCCC2)[C@H]1COC(=O)CCC1CCCC1 [Example 56, 1,5-(Butylimino)-1,5-dideoxy-D-glucitol, tetra(3-cyclopentylpropanoate)]	–	0	0	–	13%	16%	–	–	0	inhibition at 1000 µM ([1]; 1.0 mM): 56%
CC(=O)OC[C@@H]1[C@@H](OC(C)=O)[C@H](OC(C)=O)[C@@H](OC(C)=O)CN1C(=O)c1cccnc1 [Example 35, 1,5-[(3-Nicotinoyl)imino]-1,5-dideoxy-D-glucitol, tetraacetate]	–	0	–	–	10%	90%	1	–	–	inhibition at 1000 µM ([1]; 1.0 mM): 94%; Toxicity ([2]; 1.0 mM, graded 0 to 4, Table 2): 3
CC(=O)OC[C@@H]1[C@@H](OC(C)=O)[C@H](OC(C)=O)[C@@H](OC(C)=O)CN1C(=O)c1ccc(-c2ccccc2)cc1 [Example 53, 1,5-[([1,1'-biphenyl]-4-ylcarbonyl)imino]-1,5-dideoxy-D-glucitol, tetraacetate]	Toxic	0	–	28%	81%	100%	2	0	4	–
CCCC(=O)OC[C@@H]1[C@@H](OC(=O)CCC)[C@H](OC(=O)CCC)[C@@H](OC(=O)CCC)CN1C(=O)Cc1cccs1 [Example 55, 1,5-Dideoxy-1,5-[[1-oxo-2-(2-thienyl)ethyl]imino]-D-glucitol, tetrabutanoate]	Toxic	0	0	11%	37%	95%	–	0	4	–
CC(=O)OC[C@@H]1[C@@H](OC(C)=O)[C@H](OC(C)=O)[C@@H](OC(C)=O)CN1C(=O)CCOc1ccc(Cl)cc1 [Example 51, 1,5-Dideoxy-1,5-[[3-(4-chlorophenoxy)-1-oxopropyl]-imino]-D-glucitol, tetraacetate]	Toxic	0	–	12%	57%	91%	1	0	4	–
CCCCN1C[C@H](OC(=O)CCC(C)C)[C@@H](OC(=O)CCC(C)C)[C@H](OC(=O)CCC(C)C)[C@H]1COC(=O)CCC(C)C [Example 49, 1,5-(Butylimino)-1,5-dideoxy-D-glucitol, tetra(4-methylpentanoate)]	–	–	–	–	–	–	–	–	0	inhibition at 1000 µM ([1]; 1.0 mM): 98%
CCCC(=O)OC[C@@H]1[C@@H](OC(=O)CCC)[C@H](OC(=O)CCC)[C@@H](OC(=O)CCC)CN1CCCCCCCC(F)(F)F [Example 62, 1,5-(8,8,8-Trifluorooctylimino)-1,5-dideoxy-D-glucitol, tetrabutyrate]	–	–	–	–	49%	91%	1	–	–	inhibition at 1000 µM ([1]; 1.0 mM): 97%; Toxicity [2, 4]: 1; Toxicity ([2]; 1.0 mM, graded 0 to 4, Table 2): 2
CCCC(=O)OC[C@@H]1[C@@H](OC(=O)CCC)[C@H](OC(=O)CCC)[C@@H](OC(=O)CCC)CN1C(=O)c1ccccc1OC(C)=O [Example 52, 1,5-[[2-(Acetyloxy)benzoyl]imino]-1,5-dideoxy-D-glucitol, tetrabutanoate]	Toxic	0	0	16%	37%	98%	–	0	4	–
CC(=O)OC[C@@H]1[C@@H](OC(C)=O)[C@H](OC(C)=O)[C@@H](OC(C)=O)CN1C(=O)C=Cc1ccccc1 [Example 36, 1,5-(Cinnamoylimino)-1,5-dideoxy-D-glucitol, tetraacetate]	Toxic	0	4	42%	76%	–	–	0	4	% Plaque Reduction ([1]; 0.1 mM): Toxic
CC(=O)OC[C@@H]1[C@@H](OC(C)=O)[C@H](OC(C)=O)[C@@H](OC(C)=O)CN1C(=O)COc1ccccc1 [Example 25, 1,5-[(Phenoxymethyl)carbonylimino]-1,5-dideoxy-D-glucitol, tetraacetate]	–	–	–	–	–	–	–	–	–	Antiviral Activity ([1]; 0.1 mM): A; Antiviral Activity ([1]; 1.0 mM): A; Toxicity ([2]; 0.1 mM, 0 to 4 scale, Table 1): 1; Toxicity ([2]; 1.0 mM, 0 to 4 scale, Table 1): 2
CCCCCCN1C[C@H](OC(C)=O)[C@@H](OC(C)=O)[C@H](OC(C)=O)[C@H]1COC(C)=O [Example 12, 1,5-(Hexylimino)-1,5-dideoxy-D-glucitol, tetraacetate]	–	–	–	–	–	–	–	–	–	Antiviral Activity ([1]; 0.0075 mM): A; Antiviral Activity ([1]; 0.0156 mM): A; Antiviral Activity ([1]; 0.03125 mM): A; Toxicity ([2]; 0.0075 mM, 0 to 4 scale, Table 1): 1; Toxicity ([2]; 0.0156 mM, 0 to 4 scale, Table 1): 1; Toxicity [2, 5]: 2
